{"source": "patent US20230220063A1", "about": "“IL-1BETA BINDING ANTIBODIES FOR USE IN TREATING CANCER” (NOVARTIS AG, priority 2017, published 2023)", "molecules": {"B1": {"name": "Vantictumab: a therapeutic antibody which binds 5/10 Frizzled receptors (anti-Wnt) (antibody, chains of the INN, looked up, V domains shown)", "VH": "EVQLVESGGGLVQPGGSLRLSCAASGFTFSHYTLSWVRQAPGKGLEWVSVISGDGSYTYYADSVKGRFTISSDNSKNTLYLQMNSLRAEDTAVYYCARNFIKYVFANWGQGTLVTVSS", "VL": "DIELTQPPSVSVAPGQTARISCSGDNIGSFYVHWYQQKPGQAPVLVIYDKSNRPSGIPERFSGSNSGNTATLTISGTQAEDEADYYCQSYANTLSLVFGGGTKLTVL"}}, "key": {"[1]": {"test_system": "vasculature in trabecular bone", "experiment": "Blocking IL-1β signalling: blood vessels in the bone microenvironment of mice", "format": "in vivo", "description": "Vasculature was visualised following CD34 and endomucin immunohistochemistry and the concentration of vascular endothelial growth factor (VEGF) and endothelin-1 in serum and/or bone marrow was determined by ELISA. Effects on bone volume were measured by Micro computed tomography (uCT).\n(§1) Tumor cells, serum, and bone were subsequently resected for downstream analysis."}, "[2]": {"test_system": "MDA-MB-231 Luc2-TdTomato cells", "experiment": "Spontaneous human breast cancer metastasis to human bone implants in NOD SCID mice", "format": "in vivo", "description": "To model human breast cancer metastasis to human bone implants two human bone discs were implanted subcutaneously into 10-week old female NOD SCID mice (n=10/group) under isofluorane anaesthetic. Mice received an injection of 0.003 mg vetergesic and Septrin was added to the drinking water for 1 week following bone implantation. Mice were left for 4 weeks before injecting 1×10^5 MDA-MB-231 Luc2-TdTomato, MCF7 Luc2 or T47D Luc2 cells in 20% Martigel/79% PBS/1% […] into the two hind mammary fat pads. Primary tumor growth and development of metastases was monitored weekly using an IVIS […] system (Caliper Life Sciences) following sub-cutaneous injection of 30 mg/ml D-luciferin (Invitrogen). On termination of experiments mammary tumors, circulating tumor cells, serum and bone metastases were resected. RNA was processed for downstream analysis by real time PCR, and cell lysates were taken for protein analysis and whole tissue for histology as previously described (Nutter et al., 2014; Ottewell et al., 2014a).\nas §1\nWhole blood was centrifuged at 10,000 g for 5 minutes and the serum removed for ELISA assays. The cell pellet was re-suspended in 5 ml of FSM lysis solution (Sigma-Aldrich, Pool, UK) to lyse red blood cells. Remaining cells were re-pelleted, washed 3x in PBS and re-suspended in a solution of PBS/10% FCS. Samples from 10 mice per group were pooled prior to isolation of TdTomato positive tumor cells using a MoFlow High performance cell sorter (Beckman Coulter, Cambridge UK) with the […] laser line from a Coherent I-90C tenable argon ion (Coherent, Santa Clara, CA). TdTomato fluorescence was detected by a 555LP dichroic long pass and a 580/30 nm band pass filter. Acquisition and analysis of cells was performed using Summit 4.3 software. Following sorting cells were immediately placed in RNA protect cell reagent (Ambion, Paisley, Renfrew, UK) and stored at -80° C. before RNA extraction."}, "[3]": {"test_system": "patient-derived breast cancer cells", "experiment": "Breast CSC mammosphere colony formation after exposure to human bone marrow in vitro", "format": "cell-based", "text": "(§2) Dissemination of tumour cells to bone marrow is an early event in breast cancer, however these cells may lie dormant in the bone environment for many years prior to eventual colonisation. Treatment for bone metastases is not curative, therefore new adjuvant therapies preventing disseminated cells from becoming metastatic lesions may be an effective therapeutic option to improve clinical outcomes. There is evidence that cancer stemcells (CSCs) within breast tumours are the cells capable of metastasis; however, little is known about which bone marrow-derived factors support dormant CSC survival and eventual colonisation. Using in vitro culture of primary human bone marrow and patient-derived breast cancer cells, and in vivo metastasis models of human breast cancer cells implanted into mice, we investigated signalling pathways regulating CSC colony formation in bone.\n(§3) Dissemination of tumour cells to bone marrow is an early event in breast cancer, but these cells may lie dormant in the bone environment for many years before the development of clinical bone metastases. There is evidence that cancer stem cells (CSCs) within breast tumours are the cells capable of metastasis, but the effect of the bone environment on the regulation of CSCs has not been investigated. […] CSC activity following isolation from the bone environment was measured using mammosphere colony formation."}, "[4]": {"test_system": "hsCRP", "experiment": "Gevokizumab: hsCRP change in type 2 diabetes patients", "format": "in vivo, human", "conditions": "top dose 0.3 mg/kg (~20 mg) Q4W"}, "[5]": {"experiment": "Gevokizumab clinical pharmacokinetics", "format": "in vivo, human"}, "[6]": {"test_system": "human breast cancer cells", "experiment": "Spontaneous bone metastasis of human breast cancer cells implanted into mice", "conditions": "mouse", "text": "as §2, §3"}}}
{"molecule": "Anakinra: IL-1 receptor antagonist, clinically available recombinant form of the receptor antagonist", "values": [{"measurement": "average length of new blood vessels", "setting": "[1]; 1 mg/kg for 21/31 days", "result": "downwards trend"}, {"measurement": "endothelin 1 and VEGF in the bone marrow (ELISA)", "setting": "[1]; compared with control", "result": "reduced concentrations"}, {"measurement": "decrease in VEGF concentration", "setting": "[1]; mice treated with 1 mg/kg for 21 days", "result": 22, "unit": "%"}, {"measurement": "decrease in the concentration of endothelin-1", "setting": "[1]; mice treated with 1 mg/kg for 31 days", "result": 69, "unit": "%"}, {"measurement": "average length of CD34^+ blood vessels in trabecular bone", "setting": "[1]; p < 0.01 vs control", "result": "reduced the average length of CD34^+ blood vessels"}, {"measurement": "mice with metastasis detected in human bone implants", "setting": "[2]; 1 mg/kg IL-1Ra daily or 10 mg/kg canakinumab s.c. every 14 days from day 7, control 7 out of 10", "result": "4 out of 10"}, {"measurement": "bone metastasis, photons/sec mean values", "setting": "[2]; Placebo 3.60E+06", "result": "4.83E+04", "unit": "photons/sec"}, {"measurement": "size of bone metastases", "setting": "[2]; compared with control group", "result": "smaller than those detected in the control group"}, {"measurement": "bone turnover and neovascularisation", "setting": "[2]; mouse, in vivo", "result": "reduced bone turnover and neovascularisation"}, {"measurement": "onset of breast cancer metastasis in human bone", "setting": "[2]; mouse, in vivo", "result": "delayed onset of breast cancer metastasis in human bone"}, {"measurement": "primary tumour growth", "setting": "[2]; murine model of spontaneous human breast cancer metastasis to human bone", "result": "without affecting the development of primary breast cancer"}, {"measurement": "tumor cells counted in whole blood", "setting": "[2]; placebo 108 tumor cells/ml", "result": 3, "unit": "tumor cells/ml"}, {"measurement": "induction of CSC activity by the bone marrow in vitro", "setting": "[3]", "result": "reverses induction of CSC activity"}]}
{"molecule": "gevokizumab: high-affinity, humanized monoclonal antibody of the IgG2 isotype to interleukin-1β; INN number 9310; allosteric inhibitor", "values": [{"measurement": "reduction of hsCRP", "setting": "[4]", "result": "up to 45%"}, {"measurement": "Bioavailability", "setting": "[5]; administered subcutaneously", "result": "about 56%"}, {"measurement": "half-life", "setting": "[5]; human, in vivo", "result": "about 35 days"}]}
{"molecule": "B1", "values": [{"measurement": "induction of CSC activity by the bone marrow in vitro", "setting": "[3]", "result": "reverses induction of CSC activity"}, {"measurement": "spontaneous bone metastasis in vivo", "setting": "[6]", "result": "prevents spontaneous bone metastasis"}]}
